Reference: patent US10813981B2, “Saposin B binds the lipofuscin bisretinoid A2E and prevents its enzymatic and photo degradation” (Syracuse University, priority 2017, dated 2020)

Key:
[1] = test system: retinoic acid receptor (RAR); settings: cited from earlier work
[2] = molecular target: T1, retinoid isomerohydrolase (RPE65 isomerohydrolase) (Homo sapiens, UniProt Q16518); settings: non-palmitoylated, soluble, cytoplasmic RPE65; read-out: KD, direct binding to RPE65; cited from earlier work
T1 sequence (Q16518 1-533): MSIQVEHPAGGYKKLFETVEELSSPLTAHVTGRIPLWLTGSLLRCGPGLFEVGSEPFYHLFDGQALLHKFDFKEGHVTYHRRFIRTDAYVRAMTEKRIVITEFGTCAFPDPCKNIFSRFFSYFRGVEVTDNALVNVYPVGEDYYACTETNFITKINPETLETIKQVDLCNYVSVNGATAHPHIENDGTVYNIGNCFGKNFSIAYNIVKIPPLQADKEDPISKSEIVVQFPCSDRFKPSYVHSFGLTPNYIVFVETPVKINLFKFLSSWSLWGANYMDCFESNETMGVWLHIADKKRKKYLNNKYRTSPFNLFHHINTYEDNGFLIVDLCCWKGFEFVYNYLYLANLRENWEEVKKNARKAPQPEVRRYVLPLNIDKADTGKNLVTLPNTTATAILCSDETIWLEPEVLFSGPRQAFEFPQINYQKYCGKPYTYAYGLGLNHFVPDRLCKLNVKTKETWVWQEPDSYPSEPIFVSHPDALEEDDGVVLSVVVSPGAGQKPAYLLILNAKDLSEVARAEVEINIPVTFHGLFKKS

HRP [3] = molecular target: T2, HRP (Armoracia rusticana, UniProt P00433); test: A2E degradation by HRP/H2O2, absorbance kinetics at 340 nm; format: biochemical
T2 sequence (P00433 31-338): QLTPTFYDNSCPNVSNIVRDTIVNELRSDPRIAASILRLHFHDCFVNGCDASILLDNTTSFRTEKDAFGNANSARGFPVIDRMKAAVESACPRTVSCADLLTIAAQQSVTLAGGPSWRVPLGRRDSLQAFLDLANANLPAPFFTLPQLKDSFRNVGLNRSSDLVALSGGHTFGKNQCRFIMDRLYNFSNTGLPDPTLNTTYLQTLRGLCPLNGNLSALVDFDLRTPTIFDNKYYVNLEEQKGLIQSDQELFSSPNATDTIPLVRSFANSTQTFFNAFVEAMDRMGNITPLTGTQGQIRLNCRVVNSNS
From the text: Horseradish peroxidase (HRP) is reported to cleave the bis-retinoid A2E. Thus, the ability of SapB to protect A2E from oxidative transformations by HRP was investigated.
In classic peroxidases, it is believed that reaction with hydrogen peroxide gives rise to two oxidizing equivalents (i.e. a porphyrin radical-cation and an Fe(IV)-oxo (ferryl) species) due to exposure of the prosthetic heme group to the bulk solution. […] Having established the presence of two different binding sites on SapB (one for A2E and one for CoQ10), the ability of SapB to protect A2E in the presence of CoQ10 was tested.
(§1) Conventional ultraviolet visible spectroscopy was performed on a Varian Cary 50 Bio spectrophotometer from Agilent Technologies. The stock solutions of various reagents were prepared as follow: HRP in DI water, A2E in DMSO, SapB in 50 mM phosphate buffer, pH 5.5, CoQ10 in THF (tetrahydrofurane) and 3% H2O2 solution diluted in DI water from an initial stock at 30%. The 340 nm kinetic experiments were monitored every 5 minutes for a total of 400 min following the sequential addition of all reagents as indicated in FIG. 4. The HRP solution of FIG. 5 was prepared in 20 mM phosphate buffer, 1% tween, pH 5.5, 25° C. All concentrations given in the figure caption are final concentrations following mixing of the reagents. The spectrophotometric data were further analyzed with OriginLab software version 8.

HRP [4] = molecular target: T2, HRP; test: Formation of verdoheme (P-670) from HRP Compound III, absorbance at 670 nm; format: biochemical; settings: 12 μM A2E, alone or pre-complexed with SapB; 10 μM HRP, 100 μM H2O2
Description: Here, and in light of the kinetic results of FIG. 4, we followed the absorbance change at 670 nm to test the hypothesis of whether A2E may be a suitable substrate for the HRP/H2O2 system.
The experiments were then repeated in the presence of A2E and SapB to examine their effect on P-670 formation.
as §1

[5] = Blue-light photo-degradation of A2E; format: physicochemical; settings: bound to SapB (2 sapB:1 A2E) versus free; 30 min, pH 5.5
From the text: We screened A2E photostability to blue light, whether in its free form or complexed to SapB (2 sapB:1 A2E) (see supplementary materials for details) with and without 1% DMSO (a known facilitator of blue induced photobleaching). […] The fact that SapB might play a role in mitigating photo-bleaching and providing a source of subsequent fluorescence is an interesting possibility, particularly in light of recent studies by Yamamoto et al. showing that SapB could regulate CoQ10 movement/levels within HepG2 cells.
In order to further examine the protective effects of sapB towards A2E in terms of photooxidation, additional ultraviolet spectroscopy was performed on a Varian Cary 50B Spectrophotomer. The stock solutions were prepared as follows: SapB in 50 mM phosphate buffer, pH 5.5 and A2E in 100% methanol or 100% DMSO. The samples were exposed to blue light in five-minute increments and monitored after each exposure for a total of 30 min. The data was further analyzed with OriginLab software version 8. The final product was examined via mass spectroscopy to identify products as a result of blue light exposure. Evidence for photooxidized species are clearly indicated.

arylsulfatase A (ASA) = molecular target: T3, arylsulfatase A (ASA) (Homo sapiens, UniProt P15289); settings: at a set time-point; cited from earlier work
T3 sequence (P15289 19-507): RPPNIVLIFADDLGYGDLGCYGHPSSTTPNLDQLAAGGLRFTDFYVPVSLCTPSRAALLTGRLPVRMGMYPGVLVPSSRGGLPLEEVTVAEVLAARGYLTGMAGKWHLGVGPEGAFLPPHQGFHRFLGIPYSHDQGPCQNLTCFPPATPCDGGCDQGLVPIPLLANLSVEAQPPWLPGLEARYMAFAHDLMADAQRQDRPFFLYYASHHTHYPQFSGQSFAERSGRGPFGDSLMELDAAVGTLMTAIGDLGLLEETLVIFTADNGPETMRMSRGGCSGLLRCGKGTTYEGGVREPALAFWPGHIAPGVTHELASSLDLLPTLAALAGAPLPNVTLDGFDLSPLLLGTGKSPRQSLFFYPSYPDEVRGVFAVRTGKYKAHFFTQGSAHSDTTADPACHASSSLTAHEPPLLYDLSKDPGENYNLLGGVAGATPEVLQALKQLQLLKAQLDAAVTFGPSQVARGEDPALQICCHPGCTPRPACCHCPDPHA

Structure (SMILES): CC(C=CC1=C(C)CCCC1(C)C)=CC=CC(C)=Cc1cc(C=CC=C(C)C=CC2=C(C)CCCC2(C)C)cc[n+]1CCO [A2E, N-retinylidene-N-retinylethanolamine]
- ligand activity at RAR [1]: endogenous ligand
- Kd [2]: 250 nM
- absorbance change at 340 nm, A2E pre-complexed with SapB (HRP [3]; 2:1 SapB:A2E ratio, + HRP + H2O2): very similar to that of a control mixture of HRP and H2O2
- absorbance, sequences (SapB+A2E)complex+CoQ10+HRP+H2O2 or (SapB+CoQ10)complex+A2E+HRP+H2O2 (HRP [3]; SapB and CoQ10 present): absorbance values similar to the sequence (SapB+A2E)complex+HRP+H2O2
- damage to A2E, sequence (SapB+HRP)complex+A2E+H2O2 (HRP [3]; SapB pre-complexed with HRP): partial damage
- absorbance of A2E at 340 nm after H2O2 added to A2E containing HRP (HRP [3]; free A2E): decrease in the absorbance value
- amount of verdoheme (P-670) formation (HRP [4]): significant reduction
- A2E degradation over time under blue light (decline in slopes) [5]: significantly reduced
- interference with ASA specific activity (arylsulfatase A (ASA)): does not interfere
